“And” between values parts separate entries of the source, which are not always exact repeats. Identical values can stand only once. Toxic doses and inconclusive results are not listed.
System: P388 leukemia ip, CD2F1 mice, survival T/C
Assay: NCI In Vivo Anticancer Drug Screen. Data for tumor model P388 Leukemia (intraperitoneal) in CD2F1 (CDF1) mice
Details: endpoint: median survival time, higher = longer survival
How it was run: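 Mice carrying the transplanted tumor received test compound or vehicle. Survival was recorded in each group, and the value is the treated-group measurement divided by that of the vehicle-treated control group.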

[1] = dose: 15.0 mg/kg/injection, schedule: Q01DX005 (ip), vehicle: saline with Tween-80
[2] = dose: 50.0 mg/kg/injection, schedule: Q01DX005 (ip), vehicle: saline with Tween-80
[3] = dose: 100.0 mg/kg/injection, schedule: Q01DX005 (ip), vehicle: saline with Tween-80
[4] = dose: 200.0 mg/kg/injection, schedule: Q01DX005 (ip), vehicle: saline with Tween-80
[5] = dose: 50.0 mg/kg/injection, schedule: Q01DX005 (ip), vehicle: Klucel (hydroxypropylcellulose) (HPC)
[6] = dose: 100.0 mg/kg/injection, schedule: Q01DX005 (ip), vehicle: Klucel (hydroxypropylcellulose) (HPC)
[7] = dose: 200.0 mg/kg/injection, schedule: Q01DX005 (ip), vehicle: Klucel (hydroxypropylcellulose) (HPC)
[8] = dose: 50.0 mg/kg/injection, schedule: Q01DX009 (ip), vehicle: saline
[9] = dose: 100.0 mg/kg/injection, schedule: Q01DX009 (ip), vehicle: saline
[10] = dose: 200.0 mg/kg/injection, schedule: Q01DX009 (ip), vehicle: saline
[11] = dose: 3.13 mg/kg/injection, schedule: Q01DX009 (ip), vehicle: water
[12] = dose: 200.0 mg/kg/injection, schedule: Q04DX003 (ip), vehicle: saline with Tween-80

COc1cc2c(-c3c4c5c(cc(OC)c(OC)c5c5cc(OC)c(OC)cc35)CCN4C)c3c4c(cc(OC)c(OC)c4c2cc1OC)CCN3C
T/C (dose: 100.0 mg/kg/injection, schedule: Q04DX002 (ip), vehicle: saline): 101 % of control | T/C (dose: 200.0 mg/kg/injection, schedule: Q04DX002 (ip), vehicle: saline): 102 % of control | T/C (dose: 400.0 mg/kg/injection, schedule: Q04DX002 (ip), vehicle: saline): 101 % of control

CCC(Cl)C#N (stereo unspecified)
T/C (dose: 7.5 mg/kg/injection, schedule: Q01DX005 (ip), vehicle: saline with Tween-80): 106 % of control | T/C [1]: 100 % of control

Fc1ccccc1C(Nc1cnccn1)Nc1cnccn1
T/C (dose: 12.5 mg/kg/injection, schedule: Q01DX005 (ip), vehicle: saline with Tween-80): 96 % of control | T/C (dose: 25.0 mg/kg/injection, schedule: Q01DX005 (ip), vehicle: saline with Tween-80): 102 % of control | T/C [2]: 102 % of control and 109 % of control | T/C [3]: 109 % of control | T/C [4]: 111 % of control

CCOC(=O)c1[nH]c(=S)sc1N
T/C (dose: 60.0 mg/kg/injection, schedule: Q01DX005 (ip), vehicle: saline with Tween-80): 99 % of control | T/C (dose: 120.0 mg/kg/injection, schedule: Q01DX005 (ip), vehicle: saline with Tween-80): 92 % of control | T/C (dose: 240.0 mg/kg/injection, schedule: Q01DX005 (ip), vehicle: saline with Tween-80): 90 % of control

c1cc2cc3c(cc2o1)OC[C@H]1c2cc4c(cc2O[C@@H]31)OCO4
T/C (dose: 100.0 mg/kg/injection, schedule: Q01DX001 (ip), vehicle: Klucel (hydroxypropylcellulose) (HPC)): 91 % of control | T/C (dose: 200.0 mg/kg/injection, schedule: Q01DX001 (ip), vehicle: Klucel (hydroxypropylcellulose) (HPC)): 87 % of control

COc1ccc(C(C2C(=O)CC(C)(C)CC2=O)C2C(=O)CC(C)(C)CC2=O)cc1
T/C [5]: 104 % of control | T/C [6]: 101 % of control | T/C [7]: 106 % of control

CCN(Cc1ccc(CN(CC)C(=O)c2sc3ccccc3c2Cl)cc1)C(=O)c1sc2ccccc2c1Cl
T/C [8]: 101 % of control | T/C [9]: 100 % of control | T/C [10]: 93 % of control

NC(CSC(c1ccccc1)(c1ccccc1)c1ccc2ccccc2c1)C(=O)O (stereo unspecified)
T/C (dose: 3.13 mg/kg/injection, schedule: Q01DX009 (ip), vehicle: saline with Tween-80): 186 % of control | T/C [11]: 169 % of control | T/C (dose: 6.25 mg/kg/injection, schedule: Q01DX009 (ip), vehicle: saline with Tween-80): 198 % of control | T/C (dose: 6.25 mg/kg/injection, schedule: Q01DX009 (ip), vehicle: water): 189 % of control | T/C (dose: 12.5 mg/kg/injection, schedule: Q01DX009 (ip), vehicle: saline with Tween-80): 261 % of control | T/C (dose: 12.5 mg/kg/injection, schedule: Q01DX009 (ip), vehicle: water): 216 % of control | T/C (dose: 25.0 mg/kg/injection, schedule: Q01DX009 (ip), vehicle: saline with Tween-80): 90 % of control | T/C (dose: 25.0 mg/kg/injection, schedule: Q01DX009 (ip), vehicle: water): 99 % of control

CC(=O)OC1CC(n2cc(C)c(=O)[nH]c2=O)OC1COP(=O)(N1CC1(C)C)N1CC1(C)C (stereo unspecified)
T/C (dose: 25.0 mg/kg/injection, schedule: Q04DX003 (ip), vehicle: saline with Tween-80): 110 % of control | T/C [12]: 159 % of control

CCSC(=O)N1CCN(C(=O)SCC)CC1
T/C (dose: 12.5 mg/kg/injection, schedule: Q04DX003 (ip), vehicle: saline): 100 % of control | T/C (dose: 25.0 mg/kg/injection, schedule: Q04DX003 (ip), vehicle: saline): 100 % of control | T/C (dose: 50.0 mg/kg/injection, schedule: Q04DX003 (ip), vehicle: saline): 101 % of control | T/C (dose: 100.0 mg/kg/injection, schedule: Q04DX003 (ip), vehicle: saline): 108 % of control

Cc1ccccc1Nc1ccc([N+](=O)[O-])c2nonc12
T/C [2]: 103 % of control | T/C [3]: 98 % of control | T/C [4]: 92 % of control

CS(=O)(=O)Oc1cccn(S(C)(=O)=O)c1=O
T/C (dose: 12.5 mg/kg/injection, schedule: Q01DX009 (ip), vehicle: saline): 97 % of control | T/C (dose: 25.0 mg/kg/injection, schedule: Q01DX009 (ip), vehicle: saline): 92 % of control | T/C [8]: 97 % of control | T/C [9]: 97 % of control | T/C [10]: 97 % of control

C[CH2][Sn]([CH2]C)([O]S(=O)(=O)CC12CCC(CC1=O)C2(C)C)[O]S(=O)(=O)CC12CCC(CC1=O)C2(C)C
T/C (dose: 1.56 mg/kg/injection, schedule: Q01DX009 (ip), vehicle: saline): 102 % of control | T/C (dose: 3.12 mg/kg/injection, schedule: Q01DX009 (ip), vehicle: saline): 119 % of control

C/C(=C/c1ccccc1)C(=O)C1C(c2ccccc2)CC(O)C(C)C1c1ccccc1 (stereo unspecified)
T/C (dose: 100.0 mg/kg/injection, schedule: Q04DX003 (ip), vehicle: Klucel (hydroxypropylcellulose) (HPC)): 93 % of control | T/C (dose: 200.0 mg/kg/injection, schedule: Q04DX003 (ip), vehicle: Klucel (hydroxypropylcellulose) (HPC)): 88 % of control

COc1cccc2c1C(=O)c1c(O)c3c(c(O)c1C2=O)CC(O)(/C(C)=N/NC(=O)CCCC(=O)N/N=C(\C)C1(O)Cc2c(O)c4c(c(O)c2C(OC2CC(N)C(O)C(C)O2)C1)C(=O)c1c(OC)cccc1C4=O)CC3OC1CC(N)C(O)C(C)O1 (stereo unspecified)
T/C (dose: 0.2 mg/kg/injection, schedule: Q01DX009 (ip), vehicle: water): 105 % of control | T/C (dose: 0.39 mg/kg/injection, schedule: Q01DX009 (ip), vehicle: water): 90 % of control | T/C (dose: 0.78 mg/kg/injection, schedule: Q01DX009 (ip), vehicle: water): 150 % of control | T/C (dose: 1.56 mg/kg/injection, schedule: Q01DX009 (ip), vehicle: water): 188 % of control | T/C [11]: 167 % of control

O=C(CCCCC(=O)N/N=C\c1ccccn1)N/N=C\c1ccccn1
T/C (dose: 100.0 mg/kg/injection, schedule: Q01DX009 (ip), vehicle: saline with Tween-80): 109 % of control | T/C (dose: 200.0 mg/kg/injection, schedule: Q01DX009 (ip), vehicle: saline with Tween-80): 100 % of control | T/C (dose: 400.0 mg/kg/injection, schedule: Q01DX009 (ip), vehicle: saline with Tween-80): 109 % of control

Nc1ccc(S(=O)(=O)Nc2cnc3c(Cl)cccc3n2)cc1
T/C (dose: 50.0 mg/kg/injection, schedule: Q01DX005 (ip), vehicle: DMSO): 98 % of control and 99 % of control | T/C [5]: 108 % of control | T/C (dose: 100.0 mg/kg/injection, schedule: Q01DX005 (ip), vehicle: DMSO): 108 % of control and 116 % of control | T/C [6]: 106 % of control | T/C (dose: 200.0 mg/kg/injection, schedule: Q01DX005 (ip), vehicle: DMSO): 121 % of control | T/C [7]: 111 % of control | T/C (dose: 400.0 mg/kg/injection, schedule: Q01DX005 (ip), vehicle: DMSO): 120 % of control

OCc1c(-c2ccc(Cl)cc2)c(-c2ccc(F)cc2)c2n1CCC2
T/C [5]: 98 % of control | T/C [6]: 100 % of control | T/C [7]: 103 % of control

Cc1cc2cc3c(=O)[nH]c(=O)nc-3n(CC(O)C(O)C(O)CO)c2cc1C (stereo unspecified)
T/C [1]: 101 % of control and 103 % of control | T/C (dose: 30.0 mg/kg/injection, schedule: Q01DX005 (ip), vehicle: saline with Tween-80): 116 % of control and 98 % of control

COC(=O)C1C2CCCN2OC1(C)CO (stereo unspecified)
T/C (dose: 7.5 mg/kg/injection, schedule: Q01DX005 (ip), vehicle: saline): 100 % of control | T/C (dose: 15.0 mg/kg/injection, schedule: Q01DX005 (ip), vehicle: saline): 106 % of control | T/C (dose: 60.0 mg/kg/injection, schedule: Q01DX005 (ip), vehicle: saline): 203 % of control | T/C (dose: 120.0 mg/kg/injection, schedule: Q01DX005 (ip), vehicle: saline): 96 % of control | T/C (dose: 240.0 mg/kg/injection, schedule: Q01DX005 (ip), vehicle: saline): 99 % of control

O=C(CCCCl)Oc1ccccc1
T/C (dose: 100.0 mg/kg/injection, schedule: Q04DX003 (ip), vehicle: saline with Tween-80): 100 % of control | T/C [12]: 109 % of control | T/C (dose: 400.0 mg/kg/injection, schedule: Q04DX003 (ip), vehicle: saline with Tween-80): 104 % of control

CC(N)C(=O)NC(Cc1ccccc1)C(=O)O (stereo unspecified)
T/C (dose: 50.0 mg/kg/injection, schedule: Q01DX005 (ip), vehicle: saline): 101 % of control | T/C (dose: 100.0 mg/kg/injection, schedule: Q01DX005 (ip), vehicle: saline): 105 % of control | T/C (dose: 200.0 mg/kg/injection, schedule: Q01DX005 (ip), vehicle: saline): 105 % of control

COc1cc(C=Nc2c[nH]c(=O)[nH]c2=O)ccc1O
T/C [8]: 93 % of control | T/C [9]: 96 % of control | T/C [10]: 98 % of control
